26 molecules from patent US12492181B2, “Gem-disubstituted piperidine melanocortin subtype-2 receptor (MC2R) antagonists and uses thereof” (Crinetics Pharmaceuticals, Inc., priority 2019, dated 2025) can be followed below.

The structures appear in SMILES notation.

For this assay, the target named is T1, hMC2 receptor (crude hMC2R membranes from CRE-bla-CHO-K1 cells stably expressing hMC2 receptor and hMRAP accessory protein) (Homo sapiens, UniProt Q01718).
T1 construct: crude membrane fractions
T1 sequence (Q01718 whole entry): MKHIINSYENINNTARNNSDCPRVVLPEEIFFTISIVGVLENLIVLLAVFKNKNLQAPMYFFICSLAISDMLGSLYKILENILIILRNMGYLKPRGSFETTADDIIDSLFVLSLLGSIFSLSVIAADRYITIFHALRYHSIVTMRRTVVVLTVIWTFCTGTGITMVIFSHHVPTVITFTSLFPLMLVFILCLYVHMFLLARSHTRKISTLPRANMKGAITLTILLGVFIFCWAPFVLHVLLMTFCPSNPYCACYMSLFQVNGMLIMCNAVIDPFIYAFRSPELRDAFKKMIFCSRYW
T1 sequence (Q8TCY5 whole entry partner): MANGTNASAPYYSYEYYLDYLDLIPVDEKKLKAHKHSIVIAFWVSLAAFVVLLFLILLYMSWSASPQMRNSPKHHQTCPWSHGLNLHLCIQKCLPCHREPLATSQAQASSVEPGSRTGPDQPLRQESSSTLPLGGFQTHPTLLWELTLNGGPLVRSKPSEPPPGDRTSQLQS
Kind of assay: hMC2 membrane binding assay ([125I]ACTH (1-39) Tyr23, SPA). The note with it: displacement of 0.2 nM [125I]ACTH (1-39) Tyr23 from hMC2R membranes, 1.5 hours at room temperature; read-out: MC2R binding potency. In outline:
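Ki values come from non-linear regression of SPA scintillation counts, with compounds displacing [125I]ACTH(1-39) Tyr23. Membranes come from CRE-bla-CHO-K1 cells stably expressing hMC2 receptor together with hMRAP. They are preincubated with WGA-coated PVT SPA beads in 50 mM HEPES pH 7.4 with 0.20% BSA, Mg2+, Ca2+ and protease inhibitors.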
`CCOc1ncccc1-c1ncc(C2(C(=O)N[C@@H](C)CNC)CCN(c3ccc(C(F)(F)F)cc3F)CC2)cc1F` [Compound 1-315, 4-{2′-ethoxy-3-fluoro-[2,3′-bipyridin]-5-yl}-1-[2-fluoro-4-(trifluoromethyl)phenyl]-N-[(2S)-1-(methylamino)propan-2-yl]piperidine-4-carboxamide]: the Ki is less than 10 nM. As to `CCOc1ncccc1-c1ccc(C2(C(=O)N[C@H]3CCNC3)CCN(c3ccc(C(F)(F)F)cc3C#N)CC2)cn1` [Compound 1-12, 1-[2-cyano-4-(trifluoromethyl)phenyl]-4-{2′-ethoxy-[2,3′-bipyridin]-5-yl}-N-[(3S)-pyrrolidin-3-yl]piperidine-4-carboxamide], the Ki is less than 10 nM. For `CN(C)CCNC(=O)C1(c2cnc(-c3cccn3C)c(F)c2)CCN(c2ccc(C(F)(F)F)cc2Cl)CC1` [Compound 1-309, 1-[2-chloro-4-(trifluoromethyl)phenyl]-N-[2-(dimethylamino)ethyl]-4-[5-fluoro-6-(1-methyl-1H-pyrrol-2-yl)pyridin-3-yl]piperidine-4-carboxamide] the value was less than 10 nM; for `CCOc1ncccc1-c1ccc(C2(C(=O)N[C@@H]3CCN(C)C3)CCN(c3ccc(C(F)(F)F)cc3C#N)CC2)cc1F` [Compound 1-75, 1-[2-cyano-4-(trifluoromethyl)phenyl]-4-[4-(2-ethoxypyridin-3-yl)-3-fluorophenyl]-N-[(3R)-1-methylpyrrolidin-3-yl]piperidine-4-carboxamide], less than 10 nM.

Regarding `COc1ccccc1-c1ccc(C2(C(=O)NCCN(C)C)CCN(c3ccc(C(F)(F)F)cc3F)CC2)cn1` [Compound 1-254, N-[2-(dimethylamino)ethyl]-1-[2-fluoro-4-(trifluoromethyl)phenyl]-4-[6-(2-methoxyphenyl)pyridin-3-yl]piperidine-4-carboxamide], the Ki was less than 10 nM. Then `CCOc1ncccc1-c1cnc(C2(C(=O)N[C@H]3CCN(C)C3)CCN(c3ccc(C(F)(F)F)cc3C#N)CC2)cn1` [Compound 1-58, 1-[2-cyano-4-(trifluoromethyl)phenyl]-4-[5-(2-ethoxypyridin-3-yl)pyrazin-2-yl]-N-[(3S)-1-methylpyrrolidin-3-yl]piperidine-4-carboxamide], with less than 10 nM.

As to `COc1ccccc1-c1ncc(C2(C(=O)NCCN(C)C)CCN(c3ccc(C(F)(F)F)cc3Cl)CC2)cc1F` [Compound 1-286, 1-[2-chloro-4-(trifluoromethyl)phenyl]-N-[2-(dimethylamino)ethyl]-4-[5-fluoro-6-(2-methoxyphenyl)pyridin-3-yl]piperidine-4-carboxamide], the Ki was less than 10 nM. For `CN(C)CCNC(=O)C1(c2ccc(-c3cccn3C)nc2)CCN(c2ccc(C(F)(F)F)cc2Cl)CC1` [Compound 1-282, 1-[2-chloro-4-(trifluoromethyl)phenyl]-N-[2-(dimethylamino)ethyl]-4-[6-(1-methyl-1H-pyrrol-2-yl)pyridin-3-yl]piperidine-4-carboxamide] the value was less than 10 nM; for `CNC[C@H](C)NC(=O)C1(c2ccc(-c3cccnc3OC)nc2)CCN(c2ccc(C(F)(F)F)cc2F)CC1` [Compound 1-306, 1-[2-fluoro-4-(trifluoromethyl)phenyl]-4-{2′-methoxy-[2,3′-bipyridin]-5-yl}-N-[(2S)-1-(methylamino)propan-2-yl]piperidine-4-carboxamide], less than 10 nM; for `CN1CC[C@@H](NC(=O)C2(c3ccc(-c4ccccc4C(C)(F)F)nc3)CCN(c3ccc(C(F)(F)F)cc3C#N)CC2)C1` [Compound 1-84, 1-[2-cyano-4-(trifluoromethyl)phenyl]-4-{6-[2-(1,1-difluoroethyl)phenyl]pyridin-3-yl}-N-[(3R)-1-methylpyrrolidin-3-yl]piperidine-4-carboxamide], 10 to 100 nM. For `CNCCNC(=O)C1(c2ccc(-c3cccnc3OC)nc2)CCN(c2ccc(C(F)(F)F)cc2F)CC1` [Compound 1-272, 1-[2-fluoro-4-(trifluoromethyl)phenyl]-4-{2′-methoxy-[2,3′-bipyridin]-5-yl}-N-[2-(methylamino)ethyl]piperidine-4-carboxamide] the value was less than 10 nM; for `CNCCNC(=O)C1(c2ccc(-c3cccn3C)nc2)CCN(c2ccc(C(F)(F)F)cc2F)CC1` [Compound 1-281, 1-[2-fluoro-4-(trifluoromethyl)phenyl]-4-[6-(1-methyl-1H-pyrrol-2-yl)pyridin-3-yl]-N-[2-(methylamino)ethyl]piperidine-4-carboxamide], less than 10 nM; for `CN1CC[C@@H](NC(=O)C2(c3ccc(-c4ccccc4OC(F)(F)F)nc3)CCN(c3ccc(C(F)(F)F)cc3C#N)CC2)C1` [Compound 1-71, 1-[2-cyano-4-(trifluoromethyl)phenyl]-N-[(3R)-1-methylpyrrolidin-3-yl]-4-{6-[2-(trifluoromethoxy)phenyl]pyridin-3-yl}piperidine-4-carboxamide], less than 10 nM. Regarding `CN1CC[C@@H](NC(=O)C2(c3ccc(-c4cccc5ccn(C)c45)nc3)CCN(c3ccc(C(F)(F)F)cc3C#N)CC2)C1` [Compound 1-190, 1-[2-cyano-4-(trifluoromethyl)phenyl]-4-[6-(1-methyl-1H-indol-7-yl)pyridin-3-yl]-N-[(3R)-1-methylpyrrolidin-3-yl]piperidine-4-carboxamide], the Ki fell in the range of 10 to 100 nM. Then `CCOc1ccccc1-c1ccc(C2(NC(=O)[C@@H]3CCN(C)C3)CCN(c3ccc(C(F)(F)F)cc3C#N)CC2)cn1` [Compound 2-33, (3R)—N-{1-[2-cyano-4-(trifluoromethyl)phenyl]-4-[6-(2-ethoxyphenyl)pyridin-3-yl]piperidin-4-yl}-1-methylpyrrolidine-3-carboxamide], with less than 10 nM; and `COc1ccccc1-c1ccc(C2(NC(=O)O[C@H]3CCN(C)C3)CCN(c3ccc(C(F)(F)F)cc3C#N)CC2)cn1` [Compound 2-53, (3S)-1-methylpyrrolidin-3-yl N-{1-[2-cyano-4-(trifluoromethyl)phenyl]-4-[6-(2-methoxyphenyl)pyridin-3-yl]piperidin-4-yl}carbamate], with less than 10 nM; and `COc1ccccc1-c1ncc(C2(C(=O)NCCN(C)C)CCN(c3ccc(C(F)(F)F)cc3F)CC2)cc1F` [Compound 1-285, N-[2-(dimethylamino)ethyl]-1-[2-fluoro-4-(trifluoromethyl)phenyl]-4-[5-fluoro-6-(2-methoxyphenyl)pyridin-3-yl]piperidine-4-carboxamide], with less than 10 nM. For `CCOc1ncccc1-c1ccc(C2(C(=O)N[C@@H](C)CNC)CCN(c3ccc(Cl)cc3Cl)CC2)cn1` [Compound 1-322, 1-(2,4-dichlorophenyl)-4-{2′-ethoxy-[2,3′-bipyridin]-5-yl}-N-[(2S)-1-(methylamino)propan-2-yl]piperidine-4-carboxamide], the Ki is less than 10 nM.

As to `CCOc1ccccc1-c1ccc(C2(NC(=O)[C@@H]3CCN(C)C3)CCN(c3ccc(Cl)cc3C#N)CC2)cn1` [Compound 2-29, (3R)—N-[1-(4-chloro-2-cyanophenyl)-4-[6-(2-ethoxyphenyl)pyridin-3-yl]piperidin-4-yl]-1-methylpyrrolidine-3-carboxamide], the Ki is less than 10 nM. For `CCOc1ncccc1-c1ccc(C2(NC(=O)CCN)CCN(c3ccc(C(F)(F)F)cc3C#N)CC2)cn1` [Compound 2-4, 3-amino-N-{1-[2-cyano-4-(trifluoromethyl)phenyl]-4-{2′-ethoxy-[2,3′-bipyridin]-5-yl}piperidin-4-yl}propanamide], the Ki was less than 10 nM. For `CCOc1ccccc1-c1ccc(C2(C(=O)NCCN(C)C)CCN(c3ccc(C(F)(F)F)cc3Cl)CC2)cn1` [Compound 1-228, 1-[2-chloro-4-(trifluoromethyl)phenyl]-N-[2-(dimethylamino)ethyl]-4-[6-(2-ethoxyphenyl)pyridin-3-yl]piperidine-4-carboxamide] the value was less than 10 nM; for `COc1ccc(F)cc1-c1ncc(C2(C(=O)N[C@H]3CCN(C)C3)CCN(c3ccc(C(F)(F)F)cc3C#N)CC2)cc1F` [Compound 1-195, 1-[2-cyano-4-(trifluoromethyl)phenyl]-4-[5-fluoro-6-(5-fluoro-2-methoxyphenyl)pyridin-3-yl]-N-[(3S)-1-methylpyrrolidin-3-yl]piperidine-4-carboxamide], less than 10 nM.

For the molecule `CN1CC[C@@H](C(=O)NC2(c3ccc(-c4cccn4C)nc3)CCN(c3ccc(C(F)(F)F)cc3C#N)CC2)C1` [Compound 2-47, (3R)—N-{1-[2-cyano-4-(trifluoromethyl)phenyl]-4-[6-(1-methyl-1H-pyrrol-2-yl)pyridin-3-yl]piperidin-4-yl}-1-methylpyrrolidine-3-carboxamide], the Ki was less than 10 nM.

Take `CCOc1ncccc1-c1ccc(C2(C(=O)NC[C@H](C)N)CCN(c3ccc(C(F)(F)F)cc3C#N)CC2)cc1` [Compound 1-6, N-[(2S)-2-aminopropyl]-1-[2-cyano-4-(trifluoromethyl)phenyl]-4-[4-(2-ethoxypyridin-3-yl)phenyl]piperidine-4-carboxamide]: the Ki fell in the range of 10 to 100 nM.

On to `CCOc1ncccc1-c1ccc(C2(OC(=O)NCCN(C)C)CCN(c3ccc(C(F)(F)F)cc3C#N)CC2)cc1` [Compound 2-2, 1-[2-cyano-4-(trifluoromethyl)phenyl]-4-[4-(2-ethoxypyridin-3-yl)phenyl]piperidin-4-yl N-[2-(dimethylamino)ethyl]carbamate], for which the Ki lay within 10 to 100 nM. Consider `CCCOc1ccccc1-c1ccc(C2(C(=O)N[C@@H]3CCN(C)C3)CCN(c3ccc(C(F)(F)F)cc3C#N)CC2)cn1` [Compound 1-63, 1-[2-cyano-4-(trifluoromethyl)phenyl]-N-[(3R)-1-methylpyrrolidin-3-yl]-4-[6-(2-propoxyphenyl)pyridin-3-yl]piperidine-4-carboxamide], for which the Ki was less than 10 nM.
